# According to patent US6984633B2, “Method to treat cardiofibrosis with a combination therapy of an angiotensin II antagonist and epoxymexrenone” (G.D Searle & Co., priority 1995, dated 2006):
# System: rabbit aortic rings
# Test: Assay B: In vitro vascular smooth muscle response for AII, antagonist activity in aortic rings
# Type: cell-based
# Conditions: not given
# Protocol: Assay B: In Vitro Vascular Smooth Muscle-Response for AII
# The compounds of the invention were tested for antagonist activity in rabbit aortic rings. Male New Zealand white rabbits (2-2.5 kg) were sacrificed using an overdose of pentobarbital and exsanguinated via the carotid arteries. The thoracic aorta was removed, cleaned of adherent fat and connective tissue and then cut into 3-mm ring segments. The endothelium was removed from the rings by gently sliding a rolled-up piece of filter paper into the vessel lumen. The rings were then mounted in a water-jacketed tissue bath, maintained at 37° C., between moveable and fixed ends of a stainless steel wire with the moveable end attached to an FT03 Grass transducer coupled to a Model 7D Grass Polygraph for recording isometric force responses. The bath was filled with 20 ml of oxygenated (95% oxygen/5% carbon dioxide) Krebs solution of the following composition (mM); 130 NaCl, 15 NaHCO3, […], 1.2 NaH2PO4, 1.2 MgSO4, 2.5 CaCl2, and 11.4 glucose. The preparations were equilibrated for one hour before approximately one gram of passive tension was placed on the rings. Angiotensin II concentration-response curves were then recorded (3×10^−10 to 1×10^−5 M). Each concentration of AII was allowed to elicit its maximal contraction, and then AII was washed out repeatedly for 30 minutes before rechallenging with a higher concentration of AII. Aorta rings were exposed to the test antagonist at 10^−5 M for 5 minutes before challenging with AII. Adjacent segments of the same aorta ring were used for all concentration-response curves in the presence of absence of the test antagonist. The effectiveness of the test compound was expressed in terms of pA2 values and were calculated according to H. O. Schild [Br. J. Pharmacol. Chemother., 2, 189-206 (1947)]. The pA2 value is the concentration of the antagonist which increases the EC50 value for AII by a factor of two. Each test antagonist was evaluated in aorta rings from two rabbits.
row,SMILES,"Assay B pA2 column, result given as symbol"
1,CCCCc1nc(CCCN)n(Cc2ccc(-c3ccccc3-c3nnn[nH]3)cc2)n1 [Compound 71],* (Antagonist Activity not observed up to 10 μM of test compound.)

# Same assay, conditions: two determinations separated by /
row,SMILES,Assay B pA2
1,CCCc1nc(CCC)n(Cc2ccc(-c3ccccc3-c3nnn[nH]3)cc2)n1 [Compound 12],8.59
2,CCCCCc1nc(CCCCC)n(Cc2ccc(-c3ccccc3-c3nnn[nH]3)cc2)n1 [Compound 13],8.85
3,CCCCc1nc(CCC)nn1Cc1ccc(-c2ccccc2-c2nnn[nH]2)cc1 [Compound 14],8.71
4,CCCCc1nc(CCC)n(Cc2ccc(-c3ccccc3-c3nnn[nH]3)cc2)n1 [Compound 15],8.30
5,CCCCc1nc(CCC(C)C)n(Cc2ccc(-c3ccccc3-c3nnn[nH]3)cc2)n1 [Compound 16],9.24
6,CCCCc1nc(CCC(C)C)nn1Cc1ccc(-c2ccccc2-c2nnn[nH]2)cc1 [Compound 17],8.40
7,CCCCc1ncnn1Cc1ccc(-c2ccccc2C(=O)O)cc1 [Compound 18],6.09
8,CCCCc1ncn(Cc2ccc(-c3ccccc3C(=O)O)cc2)n1 [Compound 19],5.35
9,CCCCc1nc(-c2ccccc2)n(Cc2ccc(-c3ccccc3-c3nnn[nH]3)cc2)n1 [Compound 22],6.46
10,CCCCc1nc(C(OC)OC)nn1Cc1ccc(-c2ccccc2-c2nnn[nH]2)cc1 [Compound 24],7.73
11,CCCCc1nc(CCc2ccccc2)n(Cc2ccc(-c3ccccc3-c3nnn[nH]3)cc2)n1 [Compound 25],6.73
12,CCCCc1nc(CCc2ccccc2)nn1Cc1ccc(-c2ccccc2-c2nnn[nH]2)cc1 [Compound 26],9.66
13,CCCCc1nc(C(=O)CCC)nn1Cc1ccc(-c2ccccc2-c2nnn[nH]2)cc1 [Compound 30],7.88
14,CCCCc1nc(CNC(=O)OC(C)(C)C)nn1Cc1ccc(-c2ccccc2-c2nnn[nH]2)cc1 [Compound 35],7.47
15,CCCCc1nc(CN)n(Cc2ccc(-c3ccccc3-c3nnn[nH]3)cc2)n1 [Compound 36],5.68
16,CCCCc1nc(CC(OCC)OCC)n(Cc2ccc(-c3ccccc3-c3nnn[nH]3)cc2)n1 [Compound 37],6.85
17,CCCCc1nc(CC)nn1Cc1ccc(-c2ccccc2-c2nnn[nH]2)cc1 [Compound 39],7.84
18,CCCCc1nc(CNC(=O)CCC(NC(C)=O)C(=O)OC(C)(C)C)nn1Cc1ccc(-c2ccccc2-c2nnn[nH]2)cc1 (centres unmarked) [Compound 41],5.96
19,CCCCc1nc(CCC2CCCCC2)n(Cc2ccc(-c3ccccc3-c3nnn[nH]3)cc2)n1 [Compound 42],6.26
20,CCCCc1nc(CCCO)nn1Cc1ccc(-c2ccccc2-c2nnn[nH]2)cc1 [Compound 45],8.24
21,CCCCc1nc(CCCO)n(Cc2ccc(-c3ccccc3-c3nnn[nH]3)cc2)n1 [Compound 46],6.64
22,CCCCc1nc(C(F)F)nn1Cc1ccc(-c2ccccc2-c2nnn[nH]2)cc1 [Compound 47],7.58
23,CCCCc1nc(C(=O)Cc2ccccc2)nn1Cc1ccc(-c2ccccc2-c2nnn[nH]2)cc1 [Compound 50],7.89
24,CCCCc1nc(C(F)(F)Cc2ccccc2)nn1Cc1ccc(-c2ccccc2-c2nnn[nH]2)cc1 [Compound 51],8.51
25,CCCCc1nc(C(=O)O)nn1Cc1ccc(-c2ccccc2-c2nnn[nH]2)cc1 [Compound 52],8.12

row,SMILES,Assay B pA2
1,CCCCc1ncnn1Cc1ccc(-c2ccccc2-c2nnn[nH]2)cc1 [Compound 53],7.83
2,CCCCc1nc(CCCC2CCCCC2)nn1Cc1ccc(-c2ccccc2-c2nnn[nH]2)cc1 [Compound 58],6.57
3,CCCCc1nc(CC23CC4CC(CC(C4)C2)C3)nn1Cc1ccc(-c2ccccc2-c2nnn[nH]2)cc1 [Compound 62],8.61
4,CCCCc1nc(CCC(=O)O)nn1Cc1ccc(-c2ccccc2-c2nnn[nH]2)cc1 [Compound 63],7.67
5,CCCCc1nc(CCC(=O)O)n(Cc2ccc(-c3ccccc3-c3nnn[nH]3)cc2)n1 [Compound 64],6.77
6,CCCCc1nc(C2CCCCC2)n(Cc2ccc(-c3ccccc3-c3nnn[nH]3)cc2)n1 [Compound 65],7.75
7,CCCCc1nc(CCCNC(=O)OC(C)(C)C)n(Cc2ccc(-c3ccccc3-c3nnn[nH]3)cc2)n1 [Compound 67],5.78
8,CCCCc1nc(CCCN)nn1Cc1ccc(-c2ccccc2-c2nnn[nH]2)cc1 [Compound 72],6.10
9,CCCCc1nc(CC2CCCCC2)n(Cc2ccc(-c3ccccc3-c3nnn[nH]3)cc2)n1 [Compound 73],7.46
10,CCCCc1nc(CC2CCCCC2)nn1Cc1ccc(-c2ccccc2-c2nnn[nH]2)cc1 [Compound 74],8.39
11,CCCCc1nc(CC)n(Cc2ccc(-c3ccccc3C(=O)O)cc2)n1 [Compound 76],5.78
12,CCCCc1nc2c(OC(=O)C(C)C)nnc(O)c2n1Cc1ccc(-c2ccccc2-c2nnn[nH]2)cc1 [Compound 119],9.00
13,CCCCc1nc2c(OC(=O)C3CCCCC3)nnc(O)c2n1Cc1ccc(-c2ccccc2-c2nnn[nH]2)cc1 [Compound 120],8.77
14,CCCCc1nc2c(OC(=O)Cc3ccccc3)nnc(O)c2n1Cc1ccc(-c2ccccc2-c2nnn[nH]2)cc1 [Compound 124],9.12
15,CCCCc1nc(Cc2ccc(-c3ccccc3C(=O)O)cc2)n(CCCC)n1 [Compound 126],7.05
16,CCCCc1nc(Cc2ccc(-c3ccccc3-c3nnn[nH]3)cc2)n(CCCC)n1 [Compound 128],8.40
17,CCCCn1nc(C(F)(F)CCC)nc1Cc1ccc(-c2ccccc2-c2nnn[nH]2)cc1 [Compound 130],7.94
18,CCCCc1nc(Cc2ccc(-c3ccccc3-c3nnn[nH]3)nc2)n(CCCC)n1 [Compound 150],7.80
19,CCCCn1nc(CCc2ccccc2)nc1Cc1ccc(-c2ccccc2-c2nnn[nH]2)nc1 [Compound 151],7.97
20,CCCCn1nc(CCC)nc1Cc1ccc(-c2ccccc2-c2nnn[nH]2)nc1 [Compound 152],7.23
21,CCCCn1nc(/C=C/c2cccs2)nc1Cc1ccc(-c2ccccc2-c2nnn[nH]2)nc1 [Compound 154],8.38
22,CCCCn1nc(-c2ccccc2Cl)nc1Cc1ccc(-c2ccccc2-c2nnn[nH]2)nc1 [Compound 158],8.14
23,CCCCn1nc(C(=O)CCC)nc1Cc1ccc(-c2ccccc2-c2nnn[nH]2)nc1 [Compound 160],7.71
24,CCCn1nc(C(C)(F)F)nc1Cc1ccc(-c2ccccc2-c2nnn[nH]2)nc1 [Compound 165],7.18
